Results taken from patent US20160214956A1, “NOVEL SOLUBLE GUANYLATE CYCLASE ACTIVATORS AND THEIR USE” (GLAXOSMITHKLINE INTELLECTUAL PROPERTY DEVELOPMENT LIMITED, priority 2013, published 2016).

Legend:
[1] = molecular target: T1, soluble guanylate cyclase (sGC) (Rattus norvegicus, UniProt P20595); assay: Cellular assay, VASP phosphorylation in rat aortic smooth muscle cells with ODQ; assay type: cell-based; conditions: phospho-VASP signal, primary rat aortic smooth muscle cells, 10 μM ODQ, 30 min incubation; 50% vs. Bmax; read-out: Cell assay pEC50 (converted)
T1 construct: endogenous in cells; host or cells: primary rat aortic smooth muscle cells
T1 sequence (P20595 1-619): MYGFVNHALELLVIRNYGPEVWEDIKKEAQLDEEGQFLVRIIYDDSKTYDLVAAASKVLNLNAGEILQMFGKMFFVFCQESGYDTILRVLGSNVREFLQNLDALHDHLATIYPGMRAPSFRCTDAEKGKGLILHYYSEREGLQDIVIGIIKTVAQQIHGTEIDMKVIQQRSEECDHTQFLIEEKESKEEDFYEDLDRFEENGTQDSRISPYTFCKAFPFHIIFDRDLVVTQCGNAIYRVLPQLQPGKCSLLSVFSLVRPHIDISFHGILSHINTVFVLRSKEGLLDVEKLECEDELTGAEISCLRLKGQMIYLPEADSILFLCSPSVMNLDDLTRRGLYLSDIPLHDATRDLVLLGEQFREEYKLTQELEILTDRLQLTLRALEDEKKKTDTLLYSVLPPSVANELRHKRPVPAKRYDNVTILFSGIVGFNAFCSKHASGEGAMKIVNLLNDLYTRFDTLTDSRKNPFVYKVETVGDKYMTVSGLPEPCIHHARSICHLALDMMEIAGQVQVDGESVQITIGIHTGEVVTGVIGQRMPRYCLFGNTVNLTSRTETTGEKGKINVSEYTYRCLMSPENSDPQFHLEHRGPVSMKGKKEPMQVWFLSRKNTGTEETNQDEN
T1 sequence (P19686 1-690 partner): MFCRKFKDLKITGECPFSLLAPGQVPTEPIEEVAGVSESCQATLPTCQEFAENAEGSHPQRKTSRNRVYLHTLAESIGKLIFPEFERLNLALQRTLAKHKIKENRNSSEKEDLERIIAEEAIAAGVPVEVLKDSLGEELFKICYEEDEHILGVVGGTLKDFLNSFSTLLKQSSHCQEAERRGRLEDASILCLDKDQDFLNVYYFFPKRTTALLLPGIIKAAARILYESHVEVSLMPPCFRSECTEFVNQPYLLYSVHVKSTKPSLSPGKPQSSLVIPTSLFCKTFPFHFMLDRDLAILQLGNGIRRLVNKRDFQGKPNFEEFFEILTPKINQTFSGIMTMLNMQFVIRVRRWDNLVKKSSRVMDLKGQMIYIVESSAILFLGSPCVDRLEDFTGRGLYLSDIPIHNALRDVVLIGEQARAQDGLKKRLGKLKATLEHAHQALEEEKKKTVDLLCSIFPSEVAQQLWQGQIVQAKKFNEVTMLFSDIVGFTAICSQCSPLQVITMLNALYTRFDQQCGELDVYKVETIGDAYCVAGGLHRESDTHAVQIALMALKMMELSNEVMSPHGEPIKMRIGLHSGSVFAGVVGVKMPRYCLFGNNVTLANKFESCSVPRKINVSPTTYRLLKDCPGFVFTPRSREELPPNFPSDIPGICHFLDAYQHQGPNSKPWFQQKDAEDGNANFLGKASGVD
Procedure: The activity of soluble guanylate cyclase (sGC) was tested in an assay based on measuring phosphorylation of the protein kinase G (PKG) substrate vasodilator-stimulated phosphoprotein (VASP) in rat aortic smooth muscle cells. […] Dimethylsulfoxide (DMSO) vehicle and varying concentrations of the compound to be tested were then added. Following a 30 min incubation at 37° C., media was aspirated and the cells were rinsed with phosphate-buffered saline (PBS) and fixed with 4% formaldehyde in PBS by incubating at room temperature for 20 min. Cells were then washed with PBS and permeabilized for 10 min using 0.1% triton X-100 in PBS. Following PBS rinsing, the cells were blocked for 90 min at room temperature with blocking buffer. The buffer was aspirated and the cells were treated overnight at 4° C. with primary antibody (pSer239-VASP, rabbit polyclonal Ab) diluted 1:500 in blocking buffer. Following three washes with 0.05% Tween 20, the cells were treated for 1 h at room temperature with a fluorescent labeled secondary antibody (IRDye® 800CW Donkey Anti-Rabbit IgG) diluted 1:2500 in blocking buffer with 0.05% Tween 20. Following two washes with PBS, infrared fluorescence was measured using an Odyssey Infrared Imaging System. The activity of a test compound was determined as the pEC50 value which is the concentration able to increase by 50% (vs. Bmax) the phospho-VASP fluorescent signal. Front. Pharmacol., 5 Jul. 2012|doi: 10.3389/fphar.2012.00128, Volume 3 July, 2012, Article number 128.

[2] = tested on: intraocular pressure; assay: IOP in Japanese White rabbits after intravitreal administration; assay type: in vivo; conditions: FIG. 2
Procedure: (§1) In Japanese White rabbits, IOP was measured at baseline (immediately preceding administration of test article) and at predetermined time points (1, 2, 3, 5, 7, 9, 24 hours; additional time points were 30 and 48 hours after intravitreal administration) after topical (FIG. 1) or intravitreal (FIG. 2) administration of ophthalmic formulations containing drug, vehicle or saline using applanation tonometry. Test articles were topically administered in a 50 microliter volume to the right eye, saline in a 50 microliter volume to the contralateral, left eye. For intravitreal administration, dosing volumes were 20 microliters instead. For each animal, the difference between right eye IOP and left eye IOP was calculated as delta IOP.

[3] = tested on: intraocular pressure; assay: IOP in Japanese White rabbits after topical administration; assay type: in vivo; conditions: 50 microliter to right eye, FIG. 1
Procedure: as §1

[4] = tested on: intraocular pressure; assay: IOP in normal C57BL/6J mice after topical administration; assay type: in vivo; conditions: 4 microliter to right eye, compared with latanoprost, FIG. 3
Procedure: Additionally, the effect on IOP in normal mice was also assessed. In C57BL/6J mice, IOP was measured at baseline (immediately preceding administration of test article) and at predetermined time points (1, 2, 3, 4, 6, 8, 24 hours) after topical administration of ophthalmic formulations containing drug, vehicle or saline using a TonoLab. Test articles were administered in a 4 microliter volume to the right eye, saline in a 4 microliter volume to the contralateral, left eye. For each animal, the difference between right eye IOP and left eye IOP was calculated as delta IOP.

SMILES	EC50 [1] [nM]	further results
Cc1cc(OCCCn2ccc(C(F)(F)F)n2)ccc1CCc1ccccc1-c1cccc(-n2ncc(C(=O)O)c2C(F)(F)F)n1 [Example 3, 1-(6-(2-(2-methyl-4-(3-(3-(trifluoromethyl)-1H-pyrazol-1-yl)propoxy)phenethyl)phenyl)pyridin-2-yl)-5-(trifluoromethyl)-1H-pyrazole-4-carboxylic acid]	5.89	
O=C(O)c1cnn(-c2cccc(-c3ccccc3OCc3ccc(OCCCC(F)(F)F)cc3F)n2)c1C(F)(F)F [Example 5, 1-(6-(2-((2-fluoro-4-(4,4,4-trifluorobutoxy)benzyl)oxy)phenyl)pyridin-2-yl)-5-(trifluoromethyl)-1H-pyrazole-4-carboxylic acid]	60.3	
COCCCOc1ccc(COc2ccccc2-c2cccc(-n3ncc(C(=O)O)c3C(F)(F)F)n2)c(F)c1 [Example 6, 1-(6-(2-((2-fluoro-4-(3-methoxypropoxy)benzyl)oxy)phenyl)pyridin-2-yl)-5-(trifluoromethyl)-1H-pyrazole-4-carboxylic acid]	151	
Cc1cc(OCCCC(F)(F)F)ccc1CCc1ccccc1-c1cccc(-n2ncc(C(=O)O)c2C(F)(F)F)n1 [Example 1, 1-(6-(2-(2-methyl-4-(4,4,4-trifluorobutoxy)phenethyl)phenyl)pyridin-2-yl)-5-(trifluoromethyl)-1H-pyrazole-4-carboxylic acid]	14.5	effect on IOP (delta IOP) ([2]; 20 microliters to right eye): long-lasting and effective reduction in IOP; duration of IOP reduction [2]: at least 48 hours; effect on IOP (delta IOP) [3]: dose-dependently and effectively decreased IOP; effect on IOP (delta IOP) [4]: lowered IOP with efficacy similar to latanoprost, but without the initial hypertensive spike
Cc1cc(OCCCC(F)(F)F)ccc1COc1ccccc1-c1cccc(-n2ncc(C(=O)O)c2C(F)(F)F)n1 [Example 11, 1-(6-(2-((2-methyl-4-(4,4,4-trifluorobutoxy)benzyl)oxy)phenyl)pyridin-2-yl)-5-(trifluoromethyl)-1H-pyrazole-4-carboxylic acid]	102	
Cc1cc(OCCCC#N)ccc1COc1ccccc1-c1cccc(-n2ncc(C(=O)O)c2C(F)(F)F)n1 [Example 9, 1-(6-(2-((4-(3-cyanopropoxy)-2-methylbenzyl)oxy)phenyl)pyridin-2-yl)-5-(trifluoromethyl)-1H-pyrazole-4-carboxylic acid]	> 631	
COCCCOc1ccc(COc2ccccc2-c2cccc(-n3ncc(C(=O)O)c3C(F)(F)F)n2)c(C)c1 [Example 10, 1-(6-(2-((4-(3-methoxypropoxy)-2-methylbenzyl)oxy)phenyl)pyridin-2-yl)-5-(trifluoromethyl)-1H-pyrazole-4-carboxylic acid]	91.2	
